73 molecules from US5385833A, “Pseudomonas sp. ATCC No. 49794 alcohol dehydrogenase” (The Scripps Research Institute, priority 1992, dated 1995) can be followed below.

Some results are limits rather than exact numbers.

One test relates to Pseudomonas sp. strain PED alcohol dehydrogenase. The test can be described thus: PED alcohol dehydrogenase enzyme assay, reduction of carbonyl substrates (relative rates). It is filed as biochemical.
Details: not given
Molecule `O=C(c1ccccc1)C(F)(F)F` [Compound 1, trifluoroacetophenone] returned a Relative rate of 7.

The molecule `CC(=O)C(=O)c1ccccc1` [Compound 3, 1-phenyl-1,2-propanedione] showed a Relative rate of 34.

The molecule `COC(=O)CC(=O)CCl` [Compound 9, methyl 4-chloro-3-oxobutanoate] displayed a Relative rate of 4.

For the molecule `CC(=O)CCC=C(C)C` [Compound 10, 6-methyl-5-hepten-2-one], the Relative rate is on record as 6.

In turn, `CC(=O)CCCCl` [Compound 11, 5-chloro-2-pentanone] had a Relative rate of 5.

In turn, `O=C(CCCCl)c1ccc(F)cc1` [Compound 16] came in with a Relative rate of 0.

`CC(=O)CCC=C(C)C` [Compound 23]: the Relative rate stood at 7.

Take `CC(=O)C(Cl)C(C)=O` [Compound 26]: the Relative rate was 336.

Regarding `COC(=O)CC(C)=O` [Compound 27], the Relative rate is given as 135.

With `CC(=O)CCC(C)=O` [Compound 28], the Relative rate stood at 9.

`O=C(CCl)CCl` [Compound 36] came in with a Relative rate of 6.

As for `CC(C)[C@@H]1CC[C@@H](C)CC1=O` [Compound 41], the Relative rate is 3.4.

As for `CN(C)CCC(=O)c1ccccc1` [Compound 49], the Relative rate amounted to 8.

For the molecule `CC(=O)C#Cc1ccccc1` [Compound 51], the Relative rate is given as less than 0.1.

Regarding `CC(=O)/C=C/c1ccccc1` [Compound 54], the Relative rate is reported as 0.

`CCC(=O)c1ccccc1` [Compound 58]: the Relative rate was less than 1.

`CCC(C)=O` [Compound 59] had a Relative rate of 100.

As to `CCCC(C)=O` [Compound 60], the Relative rate came to 6.

As to `CCCCC(C)=O` [Compound 61], the Relative rate is recorded as 5.

On to `C#CC(C)=O` [Compound 64, 1-Butyn-3-one], for which the Relative rate was found to be 1.

Molecule `CC(=O)C(C)Cl` (stereo not drawn) [Compound 65] showed a Relative rate of 11.

Still in this test, the particulars now being: Table 1; reduction, 10 mM ketone, 0.45 mM NADH, PED, change in absorbance at 340 nm; Compound 2 = 1 (2.1 U/mg enzyme).
`O=C[C@@H]1C[C@H]1c1ccccc1` (relative stereo) [Compound 5, 1-carboxaldehyde-2-phenylcyclopropane]: the Relative rate is recorded as 7.

On to `CC(=O)c1ccccc1` [Compound 2, acetophenone], for which the Relative rate amounted to 1.

In the case of `COC(=O)C(=O)c1ccccc1` [Compound 4, methyl benzoylformate], the Relative rate worked out at 4.

Consider `CC(=O)CCc1ccccc1` [Compound 6, 4-phenyl-2-butanone], for which the Relative rate is on record as 6.

As for `O=C(c1ccccc1)C1CC1` [Compound 7, phenyl cyclopropyl ketone], the Relative rate was less than 1.

The molecule `O=C(CCCCl)c1ccccc1` [Compound 8] registered a Relative rate of 4.

Molecule `CCCCC(=O)c1ccco1` [Compound 12] showed a Relative rate of less than 0.1.

For the molecule `CCCCCC(=O)CC` [Compound 13, 3-octanone], the Relative rate was found to be 3.

For `O=C(CCl)c1ccc(O)c(O)c1` [Compound 14], the Relative rate is recorded as less than 0.1.

In the case of `O=C(CCCCl)c1ccc(O)cc1` [Compound 15], the Relative rate is given as 0.

Regarding `O=C(CCCCl)c1cccs1` [Compound 17], the Relative rate worked out at 4.

On to `O=C(CC(=O)C(F)(F)F)c1cccs1` [Compound 18], for which the Relative rate was 0.

On to `CC(=O)c1ccco1` [Compound 19], for which the Relative rate is 0.

As to `COc1coc(C(C)=O)c1OC` [Compound 20], the Relative rate was 0.6.

In turn, `O=C1CCCCc2ccccc21` [Compound 21] returned a Relative rate of 4.

Staying with this test, now noted: Table 2; determined as described in Table 1 (10 mM ketone, 0.45 mM NADH, 340 nm).
`C=CCCC(C)=O` [Compound 22] had a Relative rate of 8.

As to `COC(C)=CC(C)=O` [Compound 24], the Relative rate came to 0.

`CC(=O)CC(C)=O` [Compound 25] displayed a Relative rate of 32.

As to `CC(=O)CCC(=O)O` [Compound 29], the Relative rate is reported as 0.

The molecule `CCCCCC(=O)C(=O)O` [Compound 30] returned a Relative rate of 0.

`COC(=O)C1CCCC1=O` (stereo not drawn) [Compound 31]: the Relative rate is 22.

With `CC1C(=O)CCC1=O` [Compound 32], the Relative rate was 0.

`CCOC(=O)CC(=O)CC` [Compound 33] returned a Relative rate of 6.

As for `C=CC(=O)CCCCC` [Compound 34], the Relative rate came out at 6.

The molecule `CCCCCC(=O)CC` [Compound 35] returned a Relative rate of 2.

Take `C#CC(=O)CCl` [Compound 37]: the Relative rate was 2.

Regarding `C#CC(=O)CCC(=O)OC` [Compound 38, Methyl-4-oxo-5-hexynoate], the Relative rate is listed as less than 0.1.

The molecule `C#CC(=O)CCC` [Compound 39, 1-Hexyn-3-one] registered a Relative rate of 0.

Take `O=C1C=CCCC1` [Compound 42]: the Relative rate was determined as 0.

In turn, `CC1=CC(=O)CCC1` [Compound 43] returned a Relative rate of 0.

`O=C1C2CCC(C2)C1Cl` (stereo not drawn) [Compound 45] had a Relative rate of 2.

Molecule `CC(=O)C1CC2C=CC1C2` (stereo not drawn) [Compound 46] came in with a Relative rate of 0.

In turn, `O=C1CC2C=CC1C2` (stereo not drawn) [Compound 47] registered a Relative rate of 0.

In the case of `CC(=O)COc1ccccc1` [Compound 48], the Relative rate is given as 7.

The molecule `CCOC(OCC)C(=O)c1ccccc1` [Compound 50] yielded a Relative rate of less than 0.1.

`CC(=O)c1ccc2c(c1)OCCO2` [Compound 52] had a Relative rate of 0.

Molecule `CC(=O)c1c[nH]c2ccccc12` [Compound 53] yielded a Relative rate of 0.

On to `CC(=O)C1CCc2ccccc2C1=O` (stereo not drawn) [Compound 55], for which the Relative rate was 0.

Molecule `O=C1CCSc2ccccc21` [Compound 56] displayed a Relative rate of 0.

The molecule `CC(=O)c1ccccn1` [Compound 57] returned a Relative rate of 1.8.

Take `CCCCCC(C)=O` [Compound 62]: the Relative rate is on record as 5.

The molecule `CC(=O)C(C)O` (stereo not drawn) [Compound 63] registered a Relative rate of 2.

On to `CC(=O)C1CC1` [Compound 66], for which the Relative rate is 11.

Take `CSC(C)C(C)=O` (stereo not drawn) [Compound 67]: the Relative rate was found to be 5.

Turning to `CC(=O)C(C)CO` (stereo not drawn) [Compound 68], the Relative rate is listed as 0.

`COC(OC)C(C)=O` [Compound 69] yielded a Relative rate of 5.

In the case of `C/C=C/C(C)=O` [Compound 70], the Relative rate is less than 0.1.

Take `CO/C=C/C(C)=O` [Compound 71]: the Relative rate is 0.

Staying with this test, now noted: footnote b of Table 1; 10 mM ketone, 0.45 mM NADH.
Turning to `CC(=O)c1ccccc1` [Compound 2, acetophenone], the “Rate of reduction corresponding to relative rate 1” value was 2.1 U/mg enzyme.

The test is the same for the next values; noted with them: statement in words on Table 1.
Take `CC(=O)CCc1ccccc1` [Compound 6, 4-phenyl-2-butanone]: the “Substrate quality compared with acetophenone” value is on record as “as good a substrate as is acetophenone”.

Another test deals with PED alcohol dehydrogenase. The test can be described thus: Kinetics and product inhibition of PED alcohol dehydrogenase, oxidation of 2-propanol with NAD. The note with it: isolated PED alcohol dehydrogenase. It counts as biochemical, Pseudomonas sp. strain PED.
In general, Km refers to the substrate concentration at which the rate is half of its maximum. Regarding `CC(C)O` [Compound 2-propanol, 2-propanol], the Km amounted to 75 µM.

For the molecule `NC(=O)c1ccc[n+]([C@@H]2O[C@H](COP(=O)([O-])OP(=O)(O)OC[C@H]3O[C@@H](n4cnc5c(N)ncnc54)[C@H](O)[C@@H]3O)[C@@H](O)[C@H]2O)c1` [NAD, nicotinamide adenine dinucleotide], the Km stood at 525 µM.

Staying with this test, now noted: oxidation of 2-propanol.
For the molecule `NC(=O)C1=CN([C@@H]2O[C@H](COP(=O)(O)OP(=O)(O)OC[C@H]3O[C@@H](n4cnc5c(N)ncnc54)[C@H](O)[C@@H]3O)[C@@H](O)[C@H]2O)C=CC1` [NADH, reduced nicotinamide adenine dinucleotide], the “Product inhibition type versus 2-propanol” value is recorded as “noncompetitive inhibitors” and the “Product inhibition type versus NAD” value was “competitive inhibition”.

On to `CC(C)=O` [acetone], for which the “Product inhibition type versus 2-propanol” value is “noncompetitive inhibitors” and the “Product inhibition type versus NAD” value is “noncompetitive inhibition”.

The test is the same for the next values; noted with them: with respect to 2-propanol under saturating NAD conditions.
`CC(C)O` [Compound 2-propanol, 2-propanol] yielded a specific activity of 36 U/mg.
